From ChEMBL document CHEMBL4507268 (2021)

What was measured:
Details in all cases: Compound concentration 1.0 uM
[1] = target: T1, Interleukin-1 receptor-associated kinase 4 (Homo sapiens) (UniProt Q9NWZ3)
T1 sequence (whole entry): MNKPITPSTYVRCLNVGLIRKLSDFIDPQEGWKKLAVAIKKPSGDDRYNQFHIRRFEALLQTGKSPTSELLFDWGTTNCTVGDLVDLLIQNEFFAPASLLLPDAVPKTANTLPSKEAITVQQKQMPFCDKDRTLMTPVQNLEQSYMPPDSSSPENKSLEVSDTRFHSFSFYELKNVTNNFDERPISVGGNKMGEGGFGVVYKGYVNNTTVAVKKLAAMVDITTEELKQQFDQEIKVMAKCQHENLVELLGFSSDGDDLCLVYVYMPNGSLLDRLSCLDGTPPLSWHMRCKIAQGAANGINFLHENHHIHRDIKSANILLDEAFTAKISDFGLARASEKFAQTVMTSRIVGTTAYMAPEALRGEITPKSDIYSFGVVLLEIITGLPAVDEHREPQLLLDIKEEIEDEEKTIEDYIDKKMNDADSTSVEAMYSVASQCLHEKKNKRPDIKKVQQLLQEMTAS

[2] = target: T2, Discoidin domain-containing receptor 2 (Homo sapiens) (UniProt Q16832)
T2 sequence (whole entry): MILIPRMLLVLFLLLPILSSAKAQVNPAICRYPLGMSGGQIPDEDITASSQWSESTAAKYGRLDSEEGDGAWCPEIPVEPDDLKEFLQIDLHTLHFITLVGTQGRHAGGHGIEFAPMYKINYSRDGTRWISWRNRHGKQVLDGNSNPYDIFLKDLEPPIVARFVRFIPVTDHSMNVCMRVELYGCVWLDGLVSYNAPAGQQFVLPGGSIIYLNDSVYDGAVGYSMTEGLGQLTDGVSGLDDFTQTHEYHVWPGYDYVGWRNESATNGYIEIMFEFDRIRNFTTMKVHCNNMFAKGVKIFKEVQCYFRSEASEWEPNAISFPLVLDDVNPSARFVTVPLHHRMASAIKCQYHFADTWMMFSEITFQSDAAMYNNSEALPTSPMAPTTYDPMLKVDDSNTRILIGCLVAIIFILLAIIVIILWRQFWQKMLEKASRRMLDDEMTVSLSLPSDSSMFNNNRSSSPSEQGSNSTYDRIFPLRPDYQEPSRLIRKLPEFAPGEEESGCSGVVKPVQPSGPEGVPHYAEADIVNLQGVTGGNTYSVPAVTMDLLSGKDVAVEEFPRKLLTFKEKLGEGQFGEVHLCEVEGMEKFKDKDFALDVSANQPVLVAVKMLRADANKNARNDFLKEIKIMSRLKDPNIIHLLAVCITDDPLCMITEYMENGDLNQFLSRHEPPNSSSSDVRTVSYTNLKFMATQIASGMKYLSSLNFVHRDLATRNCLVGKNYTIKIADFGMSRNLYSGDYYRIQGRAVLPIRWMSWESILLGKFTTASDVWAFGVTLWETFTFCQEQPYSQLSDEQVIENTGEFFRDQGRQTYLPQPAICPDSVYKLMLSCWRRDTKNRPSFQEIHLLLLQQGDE

[3] = target: T3, Serine/threonine-protein kinase DCLK2 (Homo sapiens) (UniProt Q8N568)
T3 sequence (whole entry): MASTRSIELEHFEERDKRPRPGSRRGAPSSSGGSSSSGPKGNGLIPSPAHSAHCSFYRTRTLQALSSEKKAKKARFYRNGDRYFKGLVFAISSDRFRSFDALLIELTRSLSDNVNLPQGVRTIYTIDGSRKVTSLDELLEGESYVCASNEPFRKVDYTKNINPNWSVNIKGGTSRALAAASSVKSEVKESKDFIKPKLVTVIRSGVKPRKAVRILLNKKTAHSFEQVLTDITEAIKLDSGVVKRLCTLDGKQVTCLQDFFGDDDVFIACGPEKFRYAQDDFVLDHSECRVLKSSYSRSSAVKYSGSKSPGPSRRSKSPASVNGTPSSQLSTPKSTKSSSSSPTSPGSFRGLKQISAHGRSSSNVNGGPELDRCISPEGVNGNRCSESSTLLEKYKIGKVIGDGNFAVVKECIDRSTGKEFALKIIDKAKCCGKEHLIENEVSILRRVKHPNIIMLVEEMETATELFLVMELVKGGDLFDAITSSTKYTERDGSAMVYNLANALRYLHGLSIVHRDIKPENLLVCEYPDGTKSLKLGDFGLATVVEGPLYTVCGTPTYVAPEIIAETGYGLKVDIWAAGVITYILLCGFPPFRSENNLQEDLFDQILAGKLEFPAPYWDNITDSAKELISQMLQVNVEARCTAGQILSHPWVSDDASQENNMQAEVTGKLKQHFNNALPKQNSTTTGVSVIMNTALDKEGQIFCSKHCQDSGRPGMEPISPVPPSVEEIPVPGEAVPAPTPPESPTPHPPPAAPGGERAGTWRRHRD

[4] = target: Ephrin type-A receptor 4 (Homo sapiens) (UniProt P54764)
Sequence of Ephrin type-A receptor 4 (Homo sapiens) (P54764 whole entry): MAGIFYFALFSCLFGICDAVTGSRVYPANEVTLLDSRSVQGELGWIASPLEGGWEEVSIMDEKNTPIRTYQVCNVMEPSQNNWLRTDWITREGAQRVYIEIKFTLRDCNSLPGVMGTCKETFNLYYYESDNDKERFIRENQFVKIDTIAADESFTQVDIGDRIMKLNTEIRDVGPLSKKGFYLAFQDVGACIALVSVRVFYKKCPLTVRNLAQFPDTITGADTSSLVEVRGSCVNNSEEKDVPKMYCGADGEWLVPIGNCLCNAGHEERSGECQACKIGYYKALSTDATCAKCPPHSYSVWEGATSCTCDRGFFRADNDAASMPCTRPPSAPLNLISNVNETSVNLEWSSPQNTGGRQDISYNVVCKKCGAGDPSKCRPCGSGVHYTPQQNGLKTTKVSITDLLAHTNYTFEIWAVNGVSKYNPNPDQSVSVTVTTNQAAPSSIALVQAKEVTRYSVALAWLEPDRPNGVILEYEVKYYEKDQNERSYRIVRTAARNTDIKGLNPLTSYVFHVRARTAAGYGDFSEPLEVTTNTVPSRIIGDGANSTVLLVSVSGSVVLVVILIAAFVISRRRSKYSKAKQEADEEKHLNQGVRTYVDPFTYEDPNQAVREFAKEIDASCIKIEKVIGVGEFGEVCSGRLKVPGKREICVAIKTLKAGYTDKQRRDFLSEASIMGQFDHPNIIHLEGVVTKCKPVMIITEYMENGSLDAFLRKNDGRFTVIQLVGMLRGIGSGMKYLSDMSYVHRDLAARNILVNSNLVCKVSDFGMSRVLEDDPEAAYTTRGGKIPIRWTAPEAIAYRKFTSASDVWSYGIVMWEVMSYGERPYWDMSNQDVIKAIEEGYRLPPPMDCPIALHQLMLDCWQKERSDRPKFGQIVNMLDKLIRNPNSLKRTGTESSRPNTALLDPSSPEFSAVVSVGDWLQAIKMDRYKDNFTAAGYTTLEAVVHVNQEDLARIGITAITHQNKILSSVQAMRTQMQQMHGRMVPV

[5] = target: Serine/threonine-protein kinase/endoribonuclease IRE1 (Homo sapiens) (UniProt O75460)
Sequence of Serine/threonine-protein kinase/endoribonuclease IRE1 (Homo sapiens) (O75460 19-977 limits assumed): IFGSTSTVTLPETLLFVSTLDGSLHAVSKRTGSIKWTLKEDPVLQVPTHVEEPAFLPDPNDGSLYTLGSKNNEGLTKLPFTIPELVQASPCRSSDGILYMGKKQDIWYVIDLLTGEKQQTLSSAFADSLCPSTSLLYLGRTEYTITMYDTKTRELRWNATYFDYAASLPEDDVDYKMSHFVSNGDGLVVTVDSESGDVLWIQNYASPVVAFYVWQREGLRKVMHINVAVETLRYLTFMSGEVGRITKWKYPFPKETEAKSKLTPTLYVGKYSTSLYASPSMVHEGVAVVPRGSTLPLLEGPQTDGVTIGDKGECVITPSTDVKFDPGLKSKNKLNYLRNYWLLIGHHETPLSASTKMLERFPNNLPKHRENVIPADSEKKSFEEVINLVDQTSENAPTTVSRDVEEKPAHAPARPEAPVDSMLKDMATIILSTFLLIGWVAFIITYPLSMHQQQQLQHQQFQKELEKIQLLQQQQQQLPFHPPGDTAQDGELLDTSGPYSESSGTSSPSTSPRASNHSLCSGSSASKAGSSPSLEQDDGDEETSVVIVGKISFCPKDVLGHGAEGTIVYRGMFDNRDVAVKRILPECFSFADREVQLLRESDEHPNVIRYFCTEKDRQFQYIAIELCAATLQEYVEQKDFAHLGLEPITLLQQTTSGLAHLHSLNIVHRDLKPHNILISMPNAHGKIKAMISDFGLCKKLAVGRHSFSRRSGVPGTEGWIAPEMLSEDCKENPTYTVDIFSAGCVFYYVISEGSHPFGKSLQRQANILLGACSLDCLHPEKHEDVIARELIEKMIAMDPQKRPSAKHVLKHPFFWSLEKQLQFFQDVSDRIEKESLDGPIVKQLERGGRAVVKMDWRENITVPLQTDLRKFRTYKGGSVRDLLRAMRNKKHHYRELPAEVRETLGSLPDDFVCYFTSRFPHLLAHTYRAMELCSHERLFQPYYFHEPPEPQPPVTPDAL

[6] = target: T4, Aurora kinase A (Homo sapiens) (UniProt O14965)
T4 sequence (whole entry): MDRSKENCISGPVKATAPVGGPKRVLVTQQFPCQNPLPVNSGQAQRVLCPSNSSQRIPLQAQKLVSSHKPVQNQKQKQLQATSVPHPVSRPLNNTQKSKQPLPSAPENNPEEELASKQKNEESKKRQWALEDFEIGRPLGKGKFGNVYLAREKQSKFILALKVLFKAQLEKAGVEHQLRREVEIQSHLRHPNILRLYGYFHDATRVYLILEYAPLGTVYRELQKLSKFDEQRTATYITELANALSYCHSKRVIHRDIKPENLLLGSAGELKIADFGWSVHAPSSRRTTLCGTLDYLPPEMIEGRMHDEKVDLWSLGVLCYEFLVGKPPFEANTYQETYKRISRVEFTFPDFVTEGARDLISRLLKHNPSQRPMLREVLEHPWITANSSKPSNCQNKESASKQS

[7] = target: RAC-alpha serine/threonine-protein kinase (Homo sapiens) (UniProt P31749)
Sequence of RAC-alpha serine/threonine-protein kinase (Homo sapiens) (P31749 whole entry): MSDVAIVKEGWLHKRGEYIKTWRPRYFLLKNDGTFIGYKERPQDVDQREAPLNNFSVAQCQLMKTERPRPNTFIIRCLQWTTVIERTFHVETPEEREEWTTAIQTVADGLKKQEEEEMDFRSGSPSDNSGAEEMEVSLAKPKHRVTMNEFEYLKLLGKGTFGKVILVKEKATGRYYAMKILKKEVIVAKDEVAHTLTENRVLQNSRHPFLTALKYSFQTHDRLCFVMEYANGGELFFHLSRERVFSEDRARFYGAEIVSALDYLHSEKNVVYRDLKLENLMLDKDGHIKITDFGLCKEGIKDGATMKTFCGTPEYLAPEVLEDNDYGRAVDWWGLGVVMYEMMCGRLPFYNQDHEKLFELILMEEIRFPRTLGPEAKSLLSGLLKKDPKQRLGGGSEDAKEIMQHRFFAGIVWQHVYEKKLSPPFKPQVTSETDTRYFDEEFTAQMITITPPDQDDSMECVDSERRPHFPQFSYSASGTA

Measured: % residual kinase activity

CN1CCN(c2cnc3c(C4CCN(C(=O)c5ccc(OC(F)(F)F)cc5N)CC4)ncnc3c2)CC1 [BAY-885]
inactive: [1] 106% | [2] 104% | [3] 90% | [4] 82% | [5] 110% | [6] 109% | [7] 113%
